No end group written: not given here.
How the values were obtained:
Experiment in all cases: biochemical
Assay type in all cases: binding
[1] = target: HLA-A3.2 (A*0301) (Homo sapiens, UniProt P04439)
[2] = target: HLA-A11 (A*1101) (Homo sapiens, UniProt P04439, A114D/D185E/E176A/F33Y/L180Q/S129P/T187R)
[3] = target: A31 (A*3101) (Homo sapiens, UniProt P04439, A270S/D185E/E176V/E277Q/F33T/G231S/G80R/H175R/I121M/I218V/I322F/K168Q/L300P/L318F/M331R/P217A/Q94H/R138Q/T323A/T345S/T97I/V358M)
[4] = target: A*3301 (Homo sapiens, UniProt P04439, A270S/D185E/E176V/E277Q/E87N/F33T/G231S/H175R/I121M/I218V/I322F/K168Q/K210R/L300P/L318F/M331R/P217A/Q86R/Q94H/R138Q/T323A/T345S/T97I/V358M/Y195H)
[5] = target: A*6801 (Homo sapiens, UniProt P04439, A269V/D185E/E176V/E277Q/E87N/F33Y/G231S/I121M/I166T/I218V/L180W/L300P/L318F/N151K/P208A/P217A/Q86R/R169H/T345S)

| Sequence | IC50 [1] [nM] | IC50 [2] [nM] | IC50 [3] [nM] | IC50 [4] [nM] | IC50 [5] [nM] |
| --- | --- | --- | --- | --- | --- |
| VVQQLLMGA [Peptide 78.0338] | > 20000 | > 20000 | 2830 | 438 | 1440 |
| TQQLQDLFK [Peptide 88.0374] | 1700 | 53 | > 20000 | 2000 | 6680 |
| LVYQDTILWK [Peptide 9012.0221] | 199 | 32 | > 20000 | > 20000 | 155 |
| ETLNASPYK [Peptide 1589.39] | 163 | 27 | > 20000 | 4710 | 28 |
| LFYSKVRKYK [Peptide 88.0098] | 680 | 2580 | 18 | 30 | 1980 |
| VTVYYGVPVWR [Peptide 1525.01] | 560 | 22 | 19 | 511 | 29 |
| GVVFGILIKK [Peptide 9012.0242] | 484 | 17 | > 20000 | > 20000 | 146 |
| GTAKSVTCTR [Peptide 1556.31] | 960 | 98 | 214 | 168 | 208 |
| TVQVYFDGNK [Peptide 88.0202] | 1110 | 14 | 4620 | 15600 | 121 |
| ESKKEVESK [Peptide 9017.0083] | > 20000 | 8040 | > 20000 | > 20000 | 158 |
| AACWRSRRR [Peptide 78.0322] | 5600 | 18800 | 407 | 17500 | > 20000 |
| STVSVGTAK [Peptide 1589.09] | 34 | 6 | 1760 | 16000 | 9.9 |
| EFMSFLTALK [Peptide 1587.10] | 477 | 683 | 5960 | 21 | 20 |
| TILWKDIFHR [Peptide 9012.0223] | 1970 | 10 | 33 | 11 | 26 |
| WTIAYIEYR [Peptide 9017.0116] | 11300 | 31 | 97 | 14 | 8.6 |
| AVNKMFCQLAK [Peptide 1556.46] | 55 | 10 | 284 | > 20000 | 1310 |

| Sequence | IC50 [1] [nM] | IC50 [2] [nM] | IC50 [3] [nM] | IC50 [4] [nM] | IC50 [5] [nM] |
| --- | --- | --- | --- | --- | --- |
| KGLGISYGRKK [Peptide 1577.23] | 23 | 6210 | 49 | > 20000 | > 20000 |
| SVYGTTLEK [Peptide 78.0282] | 19 | 3.8 | 8880 | > 20000 | 15 |
| YVMAGVGSPK [Peptide 9012.0253] | 25 | 13 | 5730 | 219 | 18 |
| NLQGKLYYK [Peptide 88.0375] | 277 | 55 | 363 | 9.4 | 98 |
| TTNCTYKGR [Peptide 1589.41] | > 20000 | 2210 | 58 | 165 | 38 |
| KLFGYSWYK [Peptide 76.0146] | 11 | 7.3 | 7.3 | 3720 | 16 |
| RINTWKSLVK [Peptide 9017.0215] | 12 | 10 | 632 | > 20000 | 11500 |
| SVAALYWYR [Peptide 88.0341] | 32 | 4.5 | 3.7 | 0.87 | 4.1 |
| KSFFSRTWCK [Peptide 88.0170] | 7.9 | 12 | 5.4 | 22 | 219 |
| VVPAYNISK [Peptide 88.0397] | 69 | 14 | > 20000 | > 20000 | 992 |
| ILLLLIRFK [Peptide 88.0386] | 120 | 1880 | 48 | 402 | 2500 |
| LLQAVRIIK [Peptide 9017.0068] | 107 | 326 | 328 | 3020 | 15900 |
| MLVRFKCAK [Peptide 1587.30] | 151 | 187 | 85 | 983 | 864 |
| ILYQSNPYPK [Peptide 9017.0198] | 8.8 | 14 | 549 | 11000 | 37 |
| VTIKIGGQIR [Peptide 1516.05] | 13000 | 389 | 1140 | > 20000 | 46 |
| ISYGRKKRRQK [Peptide 73.0314] | 48 | 2810 | 3150 | > 20000 | 4430 |

— patent US9340577B2, “HLA binding motifs and peptides and their uses” (priority 1992, dated 2016)
